For data set [1], the system named is rhinoviruses. The following applies: cited from earlier work.
Data set [2] is described as follows: XTT cytotoxicity assay on uninfected Hep2 cells. The data set is classed as cell-based. As to conditions: human. The protocol: Uninfected confluent monolayers (seeded at 2.2×10^4 cells/well) of Hep2 cells were grown in microtiter wells (96-well plates) in EMEM (Eagle Minimum Essential Medium w/o L-glutamine [Bio Whittaker Cat. No. 12-125F] with 3% fetal bovine serum (FBS; which had been heat inactivated for 30 minutes at 56° C.; Bio Whittaker Cat. No. 14-501F), antibiotics (penicillin/streptomycin; Bio Whittaker Cat. No. 17-602E) added at 1%, and glutamine added at 1% (complete EMEM). The plates were incubated for 24 hours and used for antiviral assays and cytotoxicity assays.
Cytotoxicity assays were conducted by first removing all medium from the well containing uninfected Hep2 cells, adding 100 μl complete EMEM, and then adding hetero-substituted benzimidazole compounds (eight 3-fold dilutions with 100 μM concentration as the highest final concentration). Complete EMEM (50 μl) was added to each well instead of virus and the plates were incubated in a CO2 incubator at 37° C. for 48 hours.
At 48 hours, the cytotoxicity assays were developed by adding to each well 50 μl of XTT (1 mg/ml in PBS) containing 0.01-0.02 mM of the electron coupling agent phenazine methosulfate (PMS). The plates were incubated for 2-4 hours at 37° C. and then read in a 96-well plate reader at 450 nm. Plotting the % average OD of treated wells compared to the cell control vs. compound concentration generated dose response curves. CC50 (50% inhibitory cytotoxic concentration) values for each compound were then calculated from these curves. […]

In data set [3] the test system is RSV. The data set is described as follows: Antiviral assay (PRA): inhibition of RSV syncytial plaque formation on Hep2 cell monolayers. As to conditions: human respiratory syncytial virus, HEp-2; Table 2; RSV-infected Hep2 cells, 48 hours, syncytia counted; read-out: PRA (IC50). The data set is classed as cell-based. As for the experimental part: The lower the observed level of fusion, the greater the antiviral activity of the compound was determined to be. Uninfected confluent monolayers (seeded at 2.2×10^4 cells/well) of Hep2 cells were grown in microtiter wells (96-well plates) in EMEM (Eagle Minimum Essential Medium w/o L-glutamine [Bio Whittaker Cat. […] Bio Whittaker Cat. No. 14-[…]), antibiotics (penicillin/streptomycin; Bio Whittaker Cat. […] The plates were incubated for 24 hours and used for antiviral assays and cytotoxicity assays. To prepare Hep2 cells for addition to uninfected cells, cultures of […] infected Hep2 cells were washed with DPBS (Dulbecco's Phosphate Buffered Saline w/o calcium or magnesium; Bio Whittaker Cat. […] Gibco Life Technologies Cat. No. 15040-017). The cells were spun for 10 minutes and resuspended in 3% FBS. Cell counts were performed using a hemacytometer. Persistent cells were added to the uninfected Hep2 cells. The antiviral assay was conducted by first removing all medium from the wells containing uninfected Hep2 cells, adding 100 μl complete EMEM, then adding hetero-substituted benzimidazole compounds (eight 3-fold dilutions with 20 μM concentration as the highest final concentration) in 50 μl complete EMEM. Approximately 50 […] plaque forming units (PFU) of RSV in 50 μl was added per well and the plates were incubated in a CO2 incubator at 37° C. for 48 hours. Each plate contained uninfected control wells and infected untreated control wells for calculation of % inhibition (EC50) for each concentration. After incubation, cells in control wells were checked for fusion centers, medium was removed from the wells followed by addition to each well of either Crystal Violet stain or XTT. With respect to Crystal Violet, approximately 50μl 0.25% Crystal Violet stain in methanol was added to each well. The wells were rinsed immediately, to remove excess stain, and were allowed to dry. The number of syncytia per well were then counted, using a dissecting microscope. For antiviral assays at 48 hours post infection, cells in control wells were checked for syncytial plaques. Medium was removed from the wells followed by addition of approximately 50 Al Crystal Violet stain (0.25% Crystal Violet, 0.25% Giemsa dissolved in 10% formaldehyde, 70% methanol, and 20% H2O). The wells were incubated at room temperature for 5 minutes, rinsed with H2O to remove excess stain, and allowed to dry. The number of syncytia per well were counted using a dissecting microscope. The 50% inhibitory concentration (EC50) for each compound was calculated from the dose response curve. The compounds listed in Tables 1-2 have been screened for inhibitory activity against RSV.

Here are results for five molecules from US20040166137A1, “Hetero-substituted benzimidazole compounds and antiviral uses thereof” (priority 2002, published 2004).

Regarding `COc1ccc2nc[nH]c2c1` [5-methoxybenzimidazole], the “inhibition of the cytopathic effect” value in data set [1] was 100%.

Consider `Cc1cc(S(=O)(=O)N2CCN(Cc3nc4cccnc4n3Cc3nc4ccccc4[nH]3)CC2)c(C)s1` [compound 28, 3-(1H-Benzoimidazol-2-ylmethyl)-2-[4-(2,5-dimethyl-thiophene-3-sulfonyl)-piperazin-1-ylmethyl]-3H-imidazo[4,5-b]pyridine], for which the cytotoxic concentration (CC50) at 48 h in data set [2] is not below 100000 nM. Further, in data set [3], the concentration for half-maximal inhibition (IC50) is 16 nM. `Cc1nn(C)c(Cl)c1S(=O)(=O)N1CCN(Cc2nc3cccnc3n2Cc2nc3ccccc3[nH]2)CC1` [compound 29, 3-(1H-Benzoimidazol-2-ylmethyl)-2-[4-(5-chloro-1,3-dimethyl-1H-pyrazole-4-sulfonyl)-piperazin-1-ylmethyl]-3H-imidazo[4,5-b]pyridine] had a CC50 at 48 h in data set [2] not below 100000 nM. For the same molecule, in data set [3], the IC50 was found to be 200 nM. The corresponding values for `O=S(=O)(c1ccc(F)cc1F)N1CCN(Cc2nc3cccnc3n2Cc2nc3ccccc3[nH]2)CC1` [compound 30, 3-(1H-Benzoimidazol-2-ylmethyl)-2-[4-(2,4-difluoro-benzenesulfonyl)-piperazin-1-ylmethyl]-3H-imidazo[4,5-b]pyridine] are not below 100000 nM and 10 nM. As to `O=S(=O)(c1ccsc1)N1CCN(Cc2nc3cccnc3n2Cc2nc3ccccc3[nH]2)CC1` [compound 31, 3-(1H-Benzoimidazol-2-ylmethyl)-2-[4-(thiophene-3-sulfonyl)-piperazin-1-ylmethyl]-3H-imidazo[4,5-b]pyridine], the CC50 at 48 h in data set [2] was not below 100000 nM. Also, the 50% inhibitory concentration (IC50) in data set [3] turned out to be 10 nM.

In general, CC50 refers to the concentration giving 50% cytotoxicity. High values mean lower toxicity to the cells, low ones greater toxicity to the cells. The IC50 is the concentration that inhibits the measured activity by half.
